Test results: patent US11253497B2, “Use of derivatives of polyunsaturated fatty acids as medicaments” (Lipopharma Therapeutics, S.L., priority 2009, dated 2022)

Experiments:
[1] = system: P19 cells; assay: NMDA-induced neuronal death in P19 cells; assay type: cell-based; conditions: NMDA alone 100% death, control without NMDA 0%; negative values = proliferation
[2] = system: lung cancer cells A549; assay: Growth of lung cancer cells A549 (IC50); assay type: cell-based, human; conditions: 72 hours of incubation
How it was run: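 Human A549 lung cancer cells in RPMI 1640 with 10% FBS at 37 °C, 5% CO2, exposed to D-PUFAs or PUFAs, then counted. values are means of three independent experiments.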

[3] = system: Jurkat cells; assay: Human leukaemia (Jurkat cells); assay type: cell-based; conditions: 72 hours
Experimental: (§1) Overall, it may be seen that the series of compounds A and B are the best, so the effectiveness of these series against the development of leukaemia and liver cancer (Tables 9 and 10) was tested.

[4] = system: apolipoprotein AI (apoA-I); assay: Levels of apoA-I in SHR rats (RT-PCR); assay type: in vivo, rat; conditions: 200 mg/kg day p.o., 30 days, before treatment 100%
Experimental: (§2) In a separate experimental series, it was studied the effect of D-PUFA molecules of the present invention on blood pressure of SHR rats. In these animals both, blood pressure and levels of apolipoprotein AI (apoA-I) were measured. For these experiments Spontaneously Hypertensive Rats (SHR) were treated for 30 days with vehicle (water control) or compounds of the invention (200 mg/kg day, p.o.). At the end of this period, the animals' blood pressure and serum levels of apoA-I were measured. […] For these experiments, non-invasive methods for determining blood pressure (cuff-tail method) and gene expression for apoA-I (RT-PCR) described in the literature (Terés et al., 2008) were used. The usefulness of the molecules of the present invention for the treatment of cardiovascular diseases is reinforced by its capacity for reducing the levels of serum cholesterol and triglycerides (see below).
(§3) The average values of SHR before treatment were 214 mmHg and 100% respectively.

[5] = system: brain cancer cell (glioma) U118; assay: Brain cancer (glioma) U118 cell growth; assay type: cell-based; conditions: 72 hours of incubation
How it was run: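 Human cells in RPMI 1640 with 10% FBS at 37 °C, 5% CO2, exposed to D-PUFAs or PUFAs, then counted. glioma U118 cells run under the same conditions; values are means of three independent experiments.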

[6] = system: TNF-α; assay: Production of TNF-α in serum of LPS-injected C57BL6/J mice; assay type: in vivo; conditions: LPS 20 μg i.p. (100%), 200 mg/kg p.o.
Excerpt: (§4) Cyclooxygenase (COX) is an enzyme that can bind to membranes, taking certain lipids from there and catalyze its conversion into molecules that can have inflammatory activity. The binding of this enzyme to membrane lipids is due in part to the membrane lipid structure. The increased activity of COX 1 and 2 isoforms has been associated with the etiopathology of a number of inflammatory diseases by […] arachidonic acid metabolism to produce pro-inflammatory lipid mediators. The D-PUFA compounds of the present invention produced a series of cellular signals that alter the metabolism of arachidonic acid and, as a result, they inhibit the activity and expression of COX in monocytes in culture (Table 14 and FIG. 5A). […] For this purpose, C57BL6/J mice were treated with the various derivatives (200 mg/kg, p.o.,) after inducing an inflammatory reaction in them by intraperitoneal injection of 20 μg of bacterial lipopolysaccharide (LPS).

[7] = Lamellar-to-hexagonal (HII) transition temperature in DEPE model membranes by Differential Scanning Calorimetry; assay type: physicochemical; conditions: for Transition temperature (lamellar to HII): DEPE (4 mM), 200 μM compound, series A, control 64.5; for Temperature of lamellar-to-hexagonal transition: DEPE membranes, DEPE:D-PUFA 10:1 (mol:mol)
Experimental: The transition temperature was determined by Differential Scanning Calorimetry. The proportion DEPE:D-PUFA was 10:1 (mol:mol) in all cases. Lamellar-to-hexagonal transition is an important parameter that reflects relevant signalling properties of cell membranes. […] When this occurs, certain peripheral membrane proteins (such as G proteins, protein kinase C or Ras protein) can more easily bind to the membrane, while others have a poor interaction (e.g., the Gα-protein), so changes in the HII transition temperature are important in regulating cellular functions related to health and human therapy (Escriba et al., 1995, Vogler et al., 2004; Escriba, 2006).
Control values correspond to model membranes in the absence of fatty acids. The reduction in HII transition temperature obtained by using the D-PUFA of the invention indicates an increased induction of membrane discontinuities, generating anchoring sites in the membrane for peripheral proteins and leads to better regulation of cell signalling and, therefore, greater effectiveness in the control of certain diseases.

[8] = system: 3T3 cells; assay: Percentage of total PUFAs in membranes of 3T3 cells treated with fatty acids (gas chromatography); assay type: cell-based; conditions: 100 μM, 48 hours, mean ± SEM of four measures, control 32.4 ± 2.1
Excerpt: To perform these experiments, membranes were extracted and total fatty acids were obtained by hydrolysis in basic medium. Methanolic bases of these fatty acids were quantified by gas chromatography. The data shown are averages of four independent measures of PUFA's mass divided by the total fatty acids and expressed as a percentage. It is also shown is standard error of the mean.
The control corresponds to a culture without the presence of added natural or synthetic fatty acids. Cells in their natural form present PUFAs in their membranes, but the presence in the medium of the D-PUFA molecules of the invention increases these levels of PUFAs in the cell membrane.

[9] = system: HepG2 cells; assay: Liver cancer (HepG2 cells); assay type: cell-based; conditions: Homo sapiens, HepG2; 72 hours
Experimental: These charts show the antitumor efficacy of the compounds of this invention against the growth of breast cancer cells, brain (glioma), and lung cancer. […] The other experimental conditions are identical to those described in the preceding paragraph.
as §1

[10] = system: Spontaneously Hypertensive Rats (SHR); assay: Blood pressure of SHR rats (cuff-tail method); assay type: in vivo, rat; conditions: 200 mg/kg day p.o., 30 days, before treatment 214 mmHg
Experimental: as §2, §3

[11] = system: heterotrimeric Gi1 protein; assay: Binding of heterotrimeric Gi1 protein to model membranes (centrifugation, immunoblotting); conditions: phosphatidylcholine:phosphatidylethanolamine (6:4) 2 mM phospholipid, 0.1 μM D-PUFA; control 100 ± 5; in % (unit assumed)
Excerpt: The net result is a regulation of cell signalling leading to the reversal of various pathological processes, as shown later. […] The Control is a sample of model membranes in the absence of fatty acids.

[12] = Serum cholesterol, triglycerides and glucose in SHR rats (colorimetric); assay type: in vivo, rat; conditions: 200 mg/kg daily p.o., 28 days, untreated rats 100%
Experimental: In a separate experimental series, SHR rats were treated with various compounds of the present invention (200 mg/kg daily, 28 days, p.o.) and the levels of cholesterol, triglycerides and glucose in serum were measured by colorimetric methods. It was observed that these compounds induce significant (and in many cases marked) reductions in the levels of these metabolites (Table 16).
Values are expressed as percent, and in untreated (control) rats values were always considered as 100%.

[13] = system: breast cancer cells MDA-MB-231; assay: Growth of breast cancer cells MDA-MB-231; assay type: cell-based; conditions: 72 hours of incubation
How it was run: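 Human cancer cells in RPMI 1640 with 10% FBS at 37 °C, 5% CO2, exposed to D-PUFAs or PUFAs, then counted. Breast MDA-MB-231 cells run under the same conditions; values are means of three independent experiments.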

[14] = system: α-synuclein; assay: Expression of α-synuclein in neuronal cultures (cells P19); assay type: cell-based; conditions: untreated cells 100%
[15] = system: COX-2; assay: Expression of COX-2 in LPS-stimulated monocytes in culture; assay type: cell-based, human; conditions: positive control with LPS 100%
Excerpt: FIG. 5A also presents a drawing showing the COX-2/COX-1 relationship as % of control (Y axis) for the following compounds (X-axis): OOA (2-hydroxy-oleic acid), OLA (182A1), OALA (183A1), OGLA (183A2), OARA (204A1), OEPA (205A1), ODHA (226A1). […] The reduction of this factor is directly related to the anti-inflammatory medication. The compounds are the same as in the left pane.
as §4
Inhibition of COX-2 expression in monocytes. Percentages of inhibition (compared to the positive control in the presence of LPS, 100%) of COX-2 protein levels (expression) by the various fatty acid derivatives.

SMILES	Neuronal death (P19 cells) after treatment with NMDA [1] [%]	Levels of apoA-I [4] [%]	IC50 [5] [µM]	Production of TNF-α in serum [6] [%]	Blood pressure [10] [mm Hg]	Cholesterol in serum (top number) [12] [%]	Glucose in serum (bottom number) [12] [%]	Triglycerides in serum (central number) [12] [%]	Expression of α-synuclein [14] [%]	COX-2 protein levels (expression), percentages of inhibition compared to positive control [15] [%]	IC50 [2] [µM]	IC50 [3] [µM]	Temperature of lamellar-to-hexagonal transition [7] [°C]	IC50 [13] [µM]	other results
CCCCCC=CCC=CCCCCCCC(O)C(=O)O (stereo not shown) [182A1, 2-hydroxy-9,12-octadecadienoic acid]	−60	146	197	64	204	78	84	91	50	24					IC50 ([2]; Homo sapiens, A549): 944 µM; IC50 ([3]; Homo sapiens, Jurkat): 713 µM; Transition temperature (lamellar to HII) [7]: 51.8 °C; Percentage of total PUFA [8]: 42.3 ± 3.1%; IC50 [9]: 212 µM; G protein binding [11]: 312 ± 12; IC50 ([13]; Homo sapiens, MDA-MB-231): 388 µM
CCCCCC=CCC=CCCCCCCC(O)C(=O)[O-].[Na+] (stereo not shown) [182B1]	−62	178	198	79	201	89	87	72	61	39	196	377	52.1	379	
CCC=CCC=CCC=CCCCCCCC(O)C(=O)O (stereo not shown) [183A1, 2-hydroxy-9,12,15-octadecatrienoic acid]	−55	134	397	70	201	76	87	81	45	20					IC50 ([2]; Homo sapiens, A549): 200 µM; IC50 ([3]; Homo sapiens, Jurkat): 198 µM; Transition temperature (lamellar to HII) [7]: 51.6 °C; Percentage of total PUFA [8]: 42.8 ± 2.2%; IC50 [9]: 380 µM; G protein binding [11]: 328 ± 9; IC50 ([13]; Homo sapiens, MDA-MB-231): 380 µM
CCCCCC=CCC=CCC=CCCCC(O)C(=O)[O-].[Na+] (stereo not shown) [183B2]	−66	285	377	78	182	77	86	76	38	29	197	184	51	156	
CCCCCC=CCC=CCC=CCC=CCCC(O)C(=O)[O-].[Na+] (stereo not shown) [204B1]	−71	144	396	26	202	71	89	69	36	28	413	104	50.2	345	
CCC=CCC=CCC=CCC=CCC=CCCC(C)C(=O)[O-].[Na+] (stereo not shown) [205L1]	−35	376	435	76	198	79	85	78	67	53	362			253	
CCC=CCC=CCC=CCC=CCC=CCCC(OC=O)C(=O)OCC (stereo not shown) [205V1]	−27	315	510	84	191	85	84	79	81	76	325			298	
